Test results: patent publication EP0745595A1, “3-(3-Aryloxyphenyl)-1-(substituted methyl)-s-triazine-2,4,6-oxo or thiotrione herbicidal agents” (American Cyanamid Company, priority 1995, dated 1996)

Key:
Type in all cases: in vivo
[1] = tested on: ECHINOCHLOA ORYZOIDES (ARD.)FRITSCH; test: Preemergence weed control under flooded paddy conditions, ECHORC (Watergrass (Calif.)); settings: preemergence, 3-4 weeks after treatment
Method in brief: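 Visual 0-9 rating against untreated control, covering stand, vigor, malformation, size and chlorosis, scored three to four weeks post-treatment in a greenhouse. Application was into 1.5-3 cm flood water over silt loam sown at 0.5 cm. The 50/50 v/v aqueous/acetone doses were about 0.5, 0.25, 0.125 and 0.063 kg/ha.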

[2] = tested on: ORYZA SATIVA, L. TEBONNET; test: Rice tolerance to post-transplant applications under flooded paddy conditions, ORYSAT (Rice, Tebonnet); settings: post-transplant rice, 3-4 weeks after treatment
Method in brief: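 Rated on a visual 0–9 scale against untreated plants 3–4 weeks after application, rice (cv. Tebonnet) tolerance was tested by applying compounds (approx. 0.5–0.063 kg/ha, acetone/water 50/50) to flooded soil three days post-transplant, water kept 1.5–3 cm deep.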

CHENOPODIUM ALBUM, L. [3] = test: Preemergence herbicidal evaluation, CHEAL (Lambsquarters, Common); settings: rated four to five weeks after treatment
Method in brief: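 Rated 0-9 by visual comparison with control (stand, vigor, malformation, size, chlorosis, overall appearance) four to five weeks after preemergence soil spray. Dose equivalent to about 0.125 to 0.50 kg per hectare, applied in aqueous acetone to freshly seeded cups kept in greenhouse.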

[4] = tested on: TRITICUM AESTIVUM, CV. APOLLO; test: Preemergence herbicidal evaluation, TRZAWO (Wheat, Winter, CV. APOLLO); settings: rated four to five weeks after treatment
Description: (§1) Results of herbicide evaluation are expressed on a rating scale (0-9). The scale is based upon a visual observation of plant stand, vigor, malformation, size, chlorosis and overall plant appearance as compared with a control.
(§2) The preemergence herbicidal activity of the test compounds of the present invention is exemplified by the following tests in which the seeds of a variety of monocotyledonous and dicotyledonous plants are separately mixed with potting soil and planted on top of approximately one inch of soil in separate pint cups. […] The treated cups are then placed on greenhouse benches, watered and cared for in accordance with conventional greenhouse procedures. From four to five weeks after treatment, the tests are terminated and each cup is examined and rated according to the rating system provided in Example 40.
(§3) The compounds evaluated are reported by compound number given in Example 40.

[5] = tested on: AMBROSIA ARTEMISIIFOLIA, L.; test: Postemergence herbicidal evaluation, AMBEL (Ragweed, Common)
Method in brief: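 Postemergence herbicidal activity on AMBEL (common ragweed) was assessed on two-week-old seedlings grown in jiffy flats. Treatment solutions of 50/50 acetone/water with 0.5% TWEEN®20 surfactant were sprayed at 40 psi. After four to five weeks in the greenhouse, plants were scored 0-9 against a control for stand, vigor, malformation, size, chlorosis and overall appearance, with multiple tests averaged.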

[6] = tested on: SETARIA VIRIDIS, (L) BEAU; test: Postemergence herbicidal evaluation, SETVI (Foxtail, Green); design: key to SETVI rating / Herbicidal effect rating, SETVI / SETVI: 0-9 visual rating scale vs untreated control
Method in brief: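 Postemergence foliar spray at approximately 0.125–0.500 kg/ha onto two-week seedlings; greenhouse hold, then 0–9 visual injury rating after 4–5 weeks.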

ZEA MAYS L. [7] = test: Postemergence herbicidal evaluation, ZEAMX (Corn, Field)
Experimental: In the tests, seedling plants are grown in jiffy flats for about two weeks. The test compounds are dispersed in 50/50 acetone/water mixtures containing 0.5% TWEEN®20, a polyoxyethylene sorbitan monolaurate surfactant of Atlas Chemical Industries, […] to the plants through a spray nozzle operating at 40 psi for a predetermined time. After spraying, the plants are placed on greenhouse benches and are cared for in the usual manner, commensurate with conventional greenhouse practices. From four to five weeks after treatment, the seedling plants are examined and rated according to the rating system set forth below. Where more than one test is involved for a given compound, the data are averaged.
(§4) Plant species employed in these evaluations are reported by header abbreviation, common name and scientific name.
as §1

[8] = tested on: AMBROSIA ARTEMISIIFOLIA, L.; test: Preemergence herbicidal evaluation, AMBEL (Ragweed, Common); settings: rated four to five weeks after treatment
Description: as §1, §2, §3

CASSIA OBTUSIFOLIA, L. [9] = test: Preemergence herbicidal evaluation, CASOB (Sicklepod); settings: rated four to five weeks after treatment
Description: as §1, §2, §3

ZEA MAYS L. [10] = test: Preemergence herbicidal evaluation, ZEAMX (Corn, Field); settings: rated four to five weeks after treatment
Description: as §1, §2, §3

CASSIA OBTUSIFOLIA, L. [11] = test: Postemergence herbicidal evaluation, CASOB (Sicklepod); design: key to CASOB rating / Herbicidal effect rating, CASOB / CASOB: 0-9 visual rating scale vs untreated control
Method in brief: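 Spray: acetone/water 50/50 + 0.5% TWEEN 20; rate ~0.125–0.500 kg/ha; nozzle 40 psi; ~2-wk seedlings. Read: visual 0–9 rating at 4–5 wk post-treatment vs control; replicate tests averaged.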

[12] = tested on: ABUTILON THEOPHRASTI, MEDIC.; test: Postemergence herbicidal evaluation, ABUTH (Velvetleaf)
Method in brief: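 This postemergence herbicide test used two-week-old velvetleaf seedlings grown in jiffy flats. Each compound was sprayed at 40 psi as a dispersion in 50/50 acetone/water with 0.5% TWEEN®20 surfactant. Plants then received routine greenhouse care. After four to five weeks, injury was scored visually on a 0-9 scale against a control, and replicate tests were averaged.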

CHENOPODIUM ALBUM, L. [13] = test: Postemergence herbicidal evaluation, CHEAL (Lambsquarters, Common)
Method in brief: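 Postemergence herbicidal activity on Chenopodium album was tested by spraying two-week-old seedlings grown in jiffy flats with compound in acetone/water (50/50) plus 0.5% TWEEN®20, using a 40 psi nozzle. Four to five weeks after treatment, stand, vigor, malformation, size, chlorosis and overall appearance were scored 0-9 relative to controls, with repeat tests averaged.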

IPOMOEA SPP. [14] = test: Preemergence herbicidal evaluation, IPOSS (Morningglory spp.); settings: rated four to five weeks after treatment
Description: as §1, §2, §3

IPOMOEA SPP. [15] = test: Postemergence herbicidal evaluation, IPOSS (Morningglory spp.)
Method in brief: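 In this greenhouse postemergence herbicide test on Ipomoea spp. (morningglory), compounds in 50/50 acetone/water with 0.5% TWEEN®20 were sprayed at 40 psi onto seedlings about two weeks old grown in jiffy flats. After four to five weeks, injury was scored on a 0-9 scale covering stand, vigor, malformation, size, chlorosis and overall appearance versus control, with repeat tests averaged.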

[16] = tested on: TRITICUM AESTIVUM, CV. APOLLO; test: Postemergence herbicidal evaluation, TRZAWO (Wheat, Winter, CV. APOLLO)
Experimental: In the tests, seedling plants are grown in jiffy flats for about two weeks. The test compounds are dispersed in 50/50 acetone/water mixtures containing 0.5% TWEEN®20, a polyoxyethylene sorbitan monolaurate surfactant of Atlas Chemical Industries, […] through a spray nozzle operating at 40 psi for a predetermined time. After spraying, the plants are placed on greenhouse benches and are cared for in the usual manner, commensurate with conventional greenhouse practices. From four to five weeks after treatment, the seedling plants are examined and rated according to the rating system set forth below. Where more than one test is involved for a given compound, the data are averaged.
as §4, §1

Compound: COC(=O)Cn1c(=O)n(C)c(=O)n(-c2cc(Oc3ccc(Cl)cc3Cl)ccc2Br)c1=O [Compound 43, Methyl 3-[2-bromo-5-(2,4-dichlorophenoxy)-phenyl]tetrahydro-5-methyl-2,4,6-trioxo-s-triazine-1(2H)-acetate]
- Herbicidal effect rating, ECHORC ([1]; 0.063 kg/ha): 9.0
- Herbicidal effect rating, ECHORC ([1]; 0.125 kg/ha): 9.0
- Herbicidal effect rating, ECHORC ([1]; 0.250 kg/ha): 9.0
- Herbicidal effect rating, ECHORC ([1]; 0.500 kg/ha): 9.0
- Herbicidal effect rating, ORYSAT ([2]; 0.063 kg/ha): 2.0
- Herbicidal effect rating, ORYSAT ([2]; 0.125 kg/ha): 3.0
- Herbicidal effect rating, ORYSAT ([2]; 0.250 kg/ha): 4.0
- Herbicidal effect rating, ORYSAT ([2]; 0.500 kg/ha): 4.0
- CHEAL herbicidal rating (CHENOPODIUM ALBUM, L. [3]; Rate 0.125 kg/ha): 9.0
- CHEAL herbicidal rating (CHENOPODIUM ALBUM, L. [3]; Rate 0.250 kg/ha): 9.0
- CHEAL herbicidal rating (CHENOPODIUM ALBUM, L. [3]; Rate 0.500 kg/ha): 9.0
- TRZAWO herbicidal rating ([4]; Rate 0.125 kg/ha): 0.5
- TRZAWO herbicidal rating ([4]; Rate 0.250 kg/ha): 0.5
- TRZAWO herbicidal rating ([4]; Rate 0.500 kg/ha): 0.5

Compound: COC(=O)Cn1c(=O)n(C)c(=O)n(-c2cc(Oc3ncc(C(F)(F)F)cc3Cl)ccc2Br)c1=O [Compound 45]
- AMBEL rating ([5]; Rate 0.125 kg/ha): 9.0
- AMBEL rating ([5]; Rate 0.250 kg/ha): 9.0
- AMBEL rating ([5]; Rate 0.500 kg/ha): 9.0
- SETVI rating ([6]; Rate 0.125 kg/ha): 9.0
- SETVI rating ([6]; Rate 0.250 kg/ha): 9.0
- SETVI rating ([6]; Rate 0.500 kg/ha): 9.0
- Herbicidal effect rating, ORYSAT ([2]; 0.063 kg/ha): 2.0
- Herbicidal effect rating, ORYSAT ([2]; 0.125 kg/ha): 2.0
- Herbicidal effect rating, ORYSAT ([2]; 0.250 kg/ha): 4.0
- Herbicidal effect rating, ORYSAT ([2]; 0.500 kg/ha): 6.0
- ZEAMX rating (ZEA MAYS L. [7]; Rate 0.125 kg/ha): 9.0
- ZEAMX rating (ZEA MAYS L. [7]; Rate 0.250 kg/ha): 9.0
- ZEAMX rating (ZEA MAYS L. [7]; Rate 0.500 kg/ha): 9.0
- AMBEL herbicidal rating ([8]; Rate 0.125 kg/ha): 0.0
- AMBEL herbicidal rating ([8]; Rate 0.250 kg/ha): 0.0
- AMBEL herbicidal rating ([8]; Rate 0.500 kg/ha): 0.0
- CASOB herbicidal rating (CASSIA OBTUSIFOLIA, L. [9]; Rate 0.125 kg/ha): 0.0
- CASOB herbicidal rating (CASSIA OBTUSIFOLIA, L. [9]; Rate 0.250 kg/ha): 0.0
- CASOB herbicidal rating (CASSIA OBTUSIFOLIA, L. [9]; Rate 0.500 kg/ha): 0.0
- ZEAMX herbicidal rating (ZEA MAYS L. [10]; Rate 0.125 kg/ha): 0.0
- ZEAMX herbicidal rating (ZEA MAYS L. [10]; Rate 0.250 kg/ha): 0.0
- ZEAMX herbicidal rating (ZEA MAYS L. [10]; Rate 0.500 kg/ha): 0.0
- CASOB rating (CASSIA OBTUSIFOLIA, L. [11]; Rate 0.125 kg/ha): 9.0
- CASOB rating (CASSIA OBTUSIFOLIA, L. [11]; Rate 0.250 kg/ha): 9.0
- CASOB rating (CASSIA OBTUSIFOLIA, L. [11]; Rate 0.500 kg/ha): 9.0
- ABUTH rating ([12]; Rate 0.125 kg/ha): 9.0
- ABUTH rating ([12]; Rate 0.250 kg/ha): 9.0
- ABUTH rating ([12]; Rate 0.500 kg/ha): 9.0
- CHEAL herbicidal rating (CHENOPODIUM ALBUM, L. [3]; Rate 0.125 kg/ha): 9.0
- CHEAL herbicidal rating (CHENOPODIUM ALBUM, L. [3]; Rate 0.250 kg/ha): 9.0
- CHEAL herbicidal rating (CHENOPODIUM ALBUM, L. [3]; Rate 0.500 kg/ha): 9.0
- CHEAL rating (CHENOPODIUM ALBUM, L. [13]; Rate 0.125 kg/ha): 9.0
- CHEAL rating (CHENOPODIUM ALBUM, L. [13]; Rate 0.250 kg/ha): 9.0
- CHEAL rating (CHENOPODIUM ALBUM, L. [13]; Rate 0.500 kg/ha): 9.0
- IPOSS herbicidal rating (IPOMOEA SPP. [14]; Rate 0.125 kg/ha): 0.0
- IPOSS herbicidal rating (IPOMOEA SPP. [14]; Rate 0.250 kg/ha): 0.0
- IPOSS herbicidal rating (IPOMOEA SPP. [14]; Rate 0.500 kg/ha): 0.0
- IPOSS rating (IPOMOEA SPP. [15]; Rate 0.125 kg/ha): 9.0
- IPOSS rating (IPOMOEA SPP. [15]; Rate 0.250 kg/ha): 9.0
- IPOSS rating (IPOMOEA SPP. [15]; Rate 0.500 kg/ha): 9.0
- TRZAWO rating ([16]; Rate 0.125 kg/ha): 9.0
- TRZAWO rating ([16]; Rate 0.250 kg/ha): 9.0
- TRZAWO rating ([16]; Rate 0.500 kg/ha): 9.0
